{"source": "patent US12157730B2", "about": "“Heteroaryl derivative, method for producing same, and pharmaceutical composition comprising same as effective component” (VORONOI INC., priority 2019, dated 2024)", "biological_target": "T1, Ba/F3 cell EGFR Exon20 ins NPH (Homo sapiens, UniProt P00533, INS773NPH)", "T1 construct": "expressed in transfected cells; host or cells: Ba/F3", "assay": "Ba/F3 cell proliferation suppression, EGFR Exon20 ins NPH", "type": "cell-based", "details": "GI50 class; Ba/F3 cell line with NPH inserted at Exon20 of EGFR; 72 hours", "procedure,_shortened": "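Cells (3000–5000/well) plated 24 h before compound, 12-point 3-fold dilutions at 0.3 nM to 50 um final; Ba/F3 lines grown with 5 ng/ml IL-3. Viability by CellTiter-Glo luminescence after 72 h, growth ratio vs control, GI50 from curves; triplicate.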"}
{"smiles": "C=CC(=O)Nc1cc(Nc2cc(N3OCC[C@@H]3c3cccc(F)c3F)ncn2)c(OC)cc1N1CCC(N2CCN(C3COC3)CC2)CC1", "note": "[Example 195, N-(5-((6-((R)-3-(2,3-difluorophenyl)isoxazolidine-2-yl)pyrimidine-4-yl)amino)-4-methoxy-2-(4-(4-(oxetane-3-yl)piperazine-1-yl)piperidine-1-yl)phenyl) acrylamide]", "values": [{"measurement": "Ba/F3 (NPH) Activity", "value": "A (GI50 < 50 nM)"}]}
{"smiles": "C=CC(=O)Nc1cc(Nc2cc(N3OCC[C@@H]3c3ccc(Cl)cc3F)ncn2)c(OC)cc1N1CCC(N(C)C)CC1", "note": "[compound 403, N-(5-((6-((R)-3-(4-chloro-2-fluorophenyl)isoxazolidine-2-yl)pyrimidine-4-yl)amino)-2-(4-(dimethylamino)piperidine-1-yl)-4-methoxyphenyl) acrylamide]", "values": [{"measurement": "Ba/F3 (NPH) Activity", "value": "A (GI50 < 50 nM)"}]}
{"smiles": "C=CC(=O)Nc1cc(Nc2cc(N3OCC[C@@H]3c3cccc(Cl)c3Cl)ncn2)c(OC)cc1N1C[C@@H]2C[C@H]1CN2CC", "note": "[compound 524, N-(5-((6-((R)-3-(2,3-dichlorophenyl)isoxazolidine-2-yl)pyrimidine-4-yl)amino)-2-((1S,4S)-5-ethyl-2,5-diazabicyclo[2.2.1]heptane-2-yl)-4-methoxyphenyl) acrylamide]", "values": [{"measurement": "Ba/F3 (NPH) Activity", "value": "A (GI50 < 50 nM)"}]}
{"smiles": "C=CC(=O)Nc1cc(Nc2cc(N3OCC[C@@H]3c3cccc(F)c3)ncn2)c(OC)cc1N1CCN(C2CC2)CC1", "note": "[compound 830, N-(2-(4-cyclopropylpiperazine-1-yl)-5-((6-((R)-3-(3-fluorophenyl)isoxazolidine-2-yl)pyrimidine-4-yl)amino)-4-methoxyphenyl) acrylamide]", "values": [{"measurement": "Ba/F3 (NPH) Activity", "value": "A (GI50 < 50 nM)"}]}
{"smiles": "C=CC(=O)Nc1cc(Nc2cc(N3OCC[C@H]3c3c(F)cccc3F)ncn2)c(OC)cc1N1CCC(N2CCN(C3CC3)CC2)CC1", "note": "[Example 129, N-(2-(4-(4-cyclopropylpiperazine-1-yl)piperidine-1-yl)-5-((6-((S)-3-(2,6-difluorophenyl)isoxazolidine-2-yl)pyrimidine-4-yl)amino)-4-methoxyphenyl) acrylamide]", "values": [{"measurement": "Ba/F3 (NPH) Activity", "value": "C (500 nM ≤ GI50 < 5000 nM)"}]}
{"smiles": "C=CC(=O)Nc1cc(Nc2cc(N3OCC[C@@H]3c3ccc(F)c(Cl)c3)ncn2)c(OC)cc1N(C)CCOC", "note": "[compound 904, N-(5-((6-((R)-3-(3-chloro-4-fluorophenyl)isoxazolidine-2-yl)pyrimidine-4-yl)amino)-4-methoxy-2-((2-methoxyethyl)(methyl)amino)phenyl) acrylamide]", "values": [{"measurement": "Ba/F3 (NPH) Activity", "value": "A (GI50 < 50 nM)"}]}
{"smiles": "C=CC(=O)Nc1cc(Nc2cc(N3OCC[C@@H]3c3ccccc3)ncn2)c(OC)cc1N1C[C@H]2C[C@@H]1CO2", "note": "[Example 33, N-(2-((1R,4R)-2-oxa-5-azabicyclo [2.2.1]heptane-5-yl)-4-methoxy-5-((6((R)-3-phenylisoxazolidine-2-yl)pyrimidine-4-yl)amino)phenyl) acrylamide]", "values": [{"measurement": "Ba/F3 (NPH) Activity", "value": "A (GI50 < 50 nM)"}]}
{"smiles": "C=CC(=O)Nc1cc(Nc2cc(N3OCC[C@@H]3c3ccc(F)cc3F)ncn2)c(OC)cc1N1CCC(N2CCC(N3CCOCC3)CC2)CC1", "note": "[compound 426, N-(5-((6-((R)-3-(2,4-difluorophenyl)isoxazolidine-2-yl)pyrimidine-4-yl)amino)-4-methoxy-2-(4-morpholino-[1,4'-bipiperidine]-1'-yl)phenyl)acrylamide]", "values": [{"measurement": "Ba/F3 (NPH) Activity", "value": "A (GI50 < 50 nM)"}]}
{"smiles": "C=CC(=O)Nc1cc(Nc2cc(N3OCC[C@@H]3c3cccc(F)c3Cl)ncn2)c(OC)cc1N1CC[C@@H](N(C)C)C1", "note": "[compound 558, N-(5-((6-((R)-3-(2-chloro-3-fluorophenyl)isoxazolidine-2-yl)pyrimidine-4-yl)amino)-2-((R)-3-(dimethylamino)pyrolidine-1-yl)-4-methoxyphenyl) acrylamide]", "values": [{"measurement": "Ba/F3 (NPH) Activity", "value": "A (GI50 < 50 nM)"}]}
{"smiles": "C=CC(=O)Nc1cc(Nc2cc(N3OCC[C@@H]3c3ccc(Cl)c(Cl)c3)ncn2)c(OC)cc1N1CCN(C(C)=O)CC1", "note": "[compound 675, N-(2-(4-acetylpiperazine-1-yl)-5-((6-((R)-3-(3,4-dichlorophenyl)isoxazolidine-2-yl)pyrimidine-4-yl)amino)-4-methoxyphenyl) acrylamide]", "values": [{"measurement": "Ba/F3 (NPH) Activity", "value": "A (GI50 < 50 nM)"}]}
{"smiles": "C=CC(=O)Nc1cc(Nc2cc(N3OCC[C@@H]3c3ccc(Cl)cc3)ncn2)c(OC)cc1N1CCN(CC)CC1", "note": "[Example 255, N-(5-((6-((R)-3-(4-chlorophenyl)isoxazolidine-2-yl)pyrimidine-4-yl)amino)-2-(4-ethylpiperazine-1-yl)-4-methoxyphenyl) acrylamide]", "values": [{"measurement": "Ba/F3 (NPH) Activity", "value": "A (GI50 < 50 nM)"}]}
{"smiles": "C=CC(=O)Nc1cc(Nc2cc(N3OCC[C@@H]3c3ccc(F)c(Cl)c3)ncn2)c(OC)cc1N1CCC(N2CCN(C)CC2)CC1", "note": "[compound 719, N-(5-((6-((R)-3-(3-chloro-4-fluorophenyl)isoxazolidine-2-yl)pyrimidine-4-yl)amino)-4-methoxy-2-(4-(4-methylpiperazine-1-yl)piperidine-1-yl)phenyl) acrylamide]", "values": [{"measurement": "Ba/F3 (NPH) Activity", "value": "A (GI50 < 50 nM)"}]}
{"smiles": "C=CC(=O)Nc1cc(Nc2cc(N3OCC[C@@H]3Cc3ccc(C(F)(F)F)cc3)ncn2)c(OC)cc1N1CCC(N2C[C@@H]3C[C@H]2CO3)CC1", "note": "[compound 1052, N-(2-(4-((1S,4S)-2-oxa-5-azabicyclo [2.2.1]heptane-5-yl)piperidine-1-yl)-4-methoxy-5-((6-((S)-3-(4-(trifluoromethyl)benzyl)isoxazolidine-2-yl)pyrimidine-4-yl)amino)phenyl) acrylamide]", "values": [{"measurement": "Ba/F3 (NPH) Activity", "value": "A (GI50 < 50 nM)"}]}
{"smiles": "C=CC(=O)Nc1cc(Nc2cc(N3OCC[C@@H]3c3cccc(Cl)c3)ncn2)c(OC)cc1N1CCN(C2COC2)CC1", "note": "[compound 470, N-(5-((6-((R)-3-(3-chlorophenyl)isoxazolidine-2-yl)pyrimidine-4-yl)amino)-4-methoxy-2-(4-(oxetane-3-yl)piperazine-1-yl)phenyl) acrylamide]", "values": [{"measurement": "Ba/F3 (NPH) Activity", "value": "A (GI50 < 50 nM)"}]}
{"smiles": "C=CC(=O)Nc1cc(Nc2cc(N3OCC[C@@H]3Cc3cccc(F)c3C)ncn2)c(OC)cc1N1CCC(N2CCN(C3CC3)CC2)CC1", "note": "[compound 999, N-(2-(4-(4-cyclopropylpiperazine-1-yl)piperidine-1-yl)-5-((6-((S)-3-(3-fluoro-2-methylbenzyl)isoxazolidine-2-yl)pyrimidine-4-yl)amino)-4-methoxyphenyl) acrylamide]", "values": [{"measurement": "Ba/F3 (NPH) Activity", "value": "A (GI50 < 50 nM)"}]}
{"smiles": "C=CC(=O)Nc1cc(Nc2cc(N3OCC[C@@H]3c3cccc(C)c3F)ncn2)c(OC)cc1N1CCC(N2CCC(N(C)C)CC2)CC1", "note": "[compound 420, N-(2-(4-(dimethylamino)-[1,4'-bipiperidine]-1'-yl)-5-((6-((R)-3-(2-fluoro-3-methylphenyl)isoxazolidine-2-yl)pyrimidine-4-yl)amino)-4-methoxyphenyl) acrylamide]", "values": [{"measurement": "Ba/F3 (NPH) Activity", "value": "A (GI50 < 50 nM)"}]}
{"smiles": "C=CC(=O)Nc1cc(Nc2cc(N3OCC[C@@H]3c3ccc(F)c(F)c3F)ncn2)c(OC)cc1N1CCC(N2C[C@@H](C)O[C@@H](C)C2)CC1", "note": "[compound 576, N-(2-(4-((2S,6R)-2,6-dimethylmorpholino)piperidine-1-yl)-4-methoxy-5-((6-((R)-3-(2,3,4-trifluorophenyl)isoxazolidine-2-yl)pyrimidine-4-yl)amino)phenyl)acrylamide]", "values": [{"measurement": "Ba/F3 (NPH) Activity", "value": "A (GI50 < 50 nM)"}]}
